{"source": "patent US20190290729A1", "about": "“PHARMACEUTICAL ASSOCIATION OF GROWTH FACTOR RECEPTOR AGONIST AND ADHESION PROTEIN INHIBITOR FOR CONVERTING A NEOPLASTIC CELL INTO A NON-NEOPLASTIC CELL AND USES THEREOF” (HISTIDE AG, priority 2015, published 2019)", "tested_on": "osteosarcoma cells", "experiment": "Immunofluorescence of cell adhesion and morphology on grafted polymer scaffolds (actin, vinculin, DAPI)", "format": "cell-based", "details": "polymer scaffold covalently modified with mixture of GFR-binding compound and RGD peptide, 24 hours of culture", "protocol": "FIG. 9 is (a) a representation of a Quantitative Real Time PCR analysis of the expression of DMP-1, SCT and RANK-L in neoplastic cells (osteosarcoma cells) cultured on a native polymer scaffold (control) and on a polymer scaffold grafted with a mixture comprising a GFR-binding compound as defined in the present disclosure and a RGD peptide, after 24 hours of culture, (b) immunofluorescence staining of a representative neoplastic cell (osteosarcoma cells) cultured on a polymer scaffold grafted with a mixture comprising a GFR-binding compound as defined in the present disclosure (ID SEQ NO: 2) and a RGD peptide, after 24 hours of culture. The actin filaments were immunostained by using Alexa 488-phalloidin. The focal adhesions were represented by immunostaining with anti-vinculin. The nucleus was stained with DAPI and is represented by a circle in the center of the cell. Scale bar: 5 μm. (c) is a diagram representing the grafting density of a radiolabeled GFR-binding compound as defined in the present disclosure covalently grafted on a polymer scaffold and of a radiolabeled GFR-binding compound and a non-labeled RGD peptide both grafted on a polymer scaffold. The measurements were performed by using radioactivity quantification (no significant difference was observed). […]", "note": "Where no end group is shown, it is not given here."}
{"substance": "SEQ ID NO: 2: GFR-binding compound as defined in the present disclosure, grafted with a RGD peptide on a polymer scaffold (KVGKASSAPTKLSAISMLYLDDMGVPTLKNYQNMVVR; also: grafted with RGD peptide on polymer scaffold)", "values": [{"measurement": "morphology of neoplastic cells (immunofluorescence)", "value": "Spheroid-like structures of neoplastic cells become predominant"}]}
